Measured values reported in patent US20250098651A1, “A NON-HUMAN MAMMAL COMPRISING IN ITS GENOME AT LEAST TWO HUMAN LEUKOCYTE ANTIGEN (HLA) CLASS I ALLELES, METHODS OF MAKING SUCH MAMMAL AND USES THEREOF” (Max-Delbrueck-Centrum für Molekulare Medizin in der …, priority 2022, published 2025).

T1: TRRAP S722F peptide on HLA-A*02:01 (human)
T1 peptide: KLVFGSVFL

T2: TRRAP (wild-type S722) peptide on HLA-A*02:01 (human)
T2 peptide: KLVFGSVSL


Legend:
CD8^+ T cells [1] = experiment: Peptide immunization of ABab.I mice, intracellular IFN-γ staining of CD8+ T cells; assay type: in vivo, mouse; conditions: for CD8^+ T cells produced IFN-γ: ABab.I mice, peripheral blood restimulated in vitro seven days post-injection; for mice responded: out of 6-7 mice/antigen
Protocol: A 200 μl injection suspension containing 100 μg of short peptides in PBS, 100 μl of incomplete Freund's adjuvant, and 50 μg CpG oligonucleotides were injected subcutaneously on both lateral sides of hind legs. 10- to 20-week-old young ABabDII or ABab.I mice (6-7 mice/group) were immunized with a 4-week interval between prime-boosts. […] As standard controls, ABabDII^1 and ABab.I mice were immunized with 100 μg of MAGE-A1278 […] […] 7-10 days after every boost injection, peripheral blood cells from immunized mice were ACK-lysed and cultured with 1 μM respective specific or unspecific peptide in the presence of protein transport inhibitor for 5-6 hours. Post-cell fixation, cells were intracellularly stained for IFN-γ, surface stained for CD3, CD8 markers, and analyzed by flow cytometry.
We analyzed ABab.I mice for antigen-specific CD8^+ T cell responses against described model antigens (FIG. 19A) using peptide immunization (FIG. 20). […] The MAGE-A1 epitope, […] The unspecific peptide used in in vitro restimulations was a NY-ESO epitope, […] (SEQ ID NO: 180).
Procedure: young mice were peptide-immunized (minimum twice) with intervals of at least 4-weeks between injections. Seven days post-booster injections, PBMCs from multi-HLA mice were stimulated in vitro with either the same peptides used for immunization (right), or unspecific peptides (left), or CD3/CD28 beads (middle, positive control). Intracellular flow cytometry staining measured the amount of IFN-γ cytokine released by the CD8^+ T cells after reacting to their respective epitopes. By flow cytometry, CD8^+ T cells were in vitro measured for CD3, CD8, and intracellularly IFN-γ expression. Dot plots in the figure depict CD8^+ IFN-γ^+ T cells (gated on CD3^+ lymphocytes). As an unspecific peptide, NY-ESO peptide ([…]) was used (as a negative control) only for in vitro stimulations.

A375 cells = experiment: Endogenous processing assay, co-culture with A375 cells, IFN-γ; assay type: cell-based, Homo sapiens; conditions: concluded from TCR co-culture with TRRAP+ cell lines
Text: FIGS. 4A-4F show the generation and characterization of TRRAP S722F TCRs in ABabDII mice. FIG. 4A depicts the TCR discovery pipeline with the immunization schedule as used in an illustrative example. […] Controls with wild-type S722 peptide or without (w/o) peptide. One representative flow cytometry plot out of three responder mice is given. […] IFN-γ levels measured after overnight co-culture of PBMCs (1×10^5) either with A375 cells (mutant-S722F^+, NY-ESO^+) or with SK-Mel-37 (wild-type-S722^+, NY-ESO^+). The TCR-ESO recognizes the NY-ESO157-165 epitope. Bar graph represents mean±SD (n=2). One representation out of three co-culture experiments is given.
Transduced T cells were co-cultured with peptide-titrated T2 (TAP^−/−) cells to ensure TCR interaction and its affinity to S722F. […] NY-ESO157-165, the HLA-A2 epitope is expressed on melanoma cells A375 and SK-Mel-37.

CD8^+ T cells [2] = experiment: Peptide immunization of ABabDII mice, CD8+ T cell IFN-γ response; assay type: in vivo, mouse
Protocol: A 200 μl injection suspension containing 100 μg of short peptides in PBS, 100 μl of incomplete Freund's adjuvant, and 50 μg CpG oligonucleotides were injected subcutaneously on both lateral sides of hind legs. 10- to 20-week-old young ABabDII or ABab.I mice (6-7 mice/group) were immunized with a 4-week interval between prime-boosts. Similar peptide mixtures were prepared and injected for further boosting regimens of all peptides. As standard controls, ABabDII^1 and ABab.I mice were immunized with 100 μg of MAGE-A1278 […] (SEQ ID NO: 26) peptide with a similar injection mixture. 7-10 days after every boost injection, peripheral blood cells from immunized mice were ACK-lysed and cultured with 1 μM respective specific or unspecific peptide in the presence of protein transport inhibitor for 5-6 hours. Post-cell fixation, cells were intracellularly stained for IFN-γ, surface stained for CD3, CD8 markers, and analyzed by flow cytometry.
For TCR candidate discovery, young ABabDII mice (n=7, 12-16 weeks) were immunized with mutant 9-mer peptides (FIG. 3B, […], SEQ ID NO: 30) at 4-week intervals. CD8^+ T cell responses were analyzed in blood one week after every boost using intracellular staining, followed by culturing the T cells and IFN-γ capture assay to sort for peptide-specific T cells (FIG. 4A). […]

[3] = biological target: T1, TRRAP S722F peptide on HLA-A*02:01; experiment: cytokine release
[4] = biological target: T2, TRRAP (wild-type S722) peptide on …; experiment: cytokine release

Molecule | CD8^+ T cells produced IFN-γ (CD8^+ T cells [1]) | mice responded (CD8^+ T cells [1]) | also measured
APRGPHGGAASGL (NY- ESO peptide; NY- ESO epitope) [unspecific NY-ESO peptide used for in vitro restimulation] | No T cell responses were observed | – | –
KLVFGSVEL [mutant epitope-S722F, TRRAP S722F mutant nonamer, HLA-A2-restricted] | – | – | endogenous processing and presentation on HLA-A2 (A375 cells): not endogenously processed and presented on HLA-A2; T cells responding in the spleen after T cell culturing (CD8^+ T cells [2]; 10^−9 M peptide and IL-2 (20 IU/ml) for 10 days): about 17%; T cells responded in blood (CD8^+ T cells [2]; ABabDII mice, one-week post-4th injection (3rd boost)): about 0.8%
KMRMRRMRR | about 1.8% | 1 | –
KVLEYVIKV | ~1% | 3 | –
QYDPVAALF | about 0.3% | – | –
SAFRCFIVY | about 0.2% | 3 | –
TPRVTGGGAM | About 1.4% | – | –
VRIGHLYIL | about 0.23% | 1 | –
VVGAVGVGK | About 6.9% | 6 | –
TRRAP S722F TCR, dominant TCR Valpha17-Vbeta27 pair (TCR) alpha TRAV17-1 TRAJ58 CDR3: CATDAEETSGSRLTF beta TRBV27-1 TRBJ2-1 CDR3: CASSLAGIYNEQFF | – | – | binding result [3]: recognises; binding result [4]: no recognition
